Entries after “also recorded” stand apart in the source; their conditions may differ.
Assays:
microglial cells [1] = assay: Nitrite quantification by Griess method in LPS-activated microglial cells; assay type: cell-based; settings: test compound at 1 μM; 10 ng/ml LPS; medium collected after 48 h; control 0.1% DMSO; read-out: % of NO/control
Experimental: (§1) The experiments that were carried out concern the ability of these molecules to inhibit the liberation of nitrites and Tumor Necrosis Factor-alpha (TNF-α) in the activated microglia. NO and TNF-α production are two common parameters related to inflammatory processes.
To evaluate the nitrite production, microglial cells were cultured in DMEM-F12 medium containing 2% heat-inactivated FBS in 48 well plates at a density of 20000 cells per well. Peripheral wells of the plate were discarded. After 72 h, 400 μL out of 500 μL medium was replaced by 350 μL fresh medium. The cells were treated with each molecule to be tested by adding 50 μL of a 10× solution to obtain a final concentration ranging from 0.1 μM to 1 μM. Each treatment was done in duplicates. 10 ng/ml LPS was added after 1 hour and the medium was collected after 48 h and stored at −20° C. until analysis. To quantify the NO production, nitrites were measured using Griess reactive (sulfanilamide 1%, Sigma; N-(1-Naphthyl)ethylenediamine 0.1%, Sigma; phosphoric acid 2.5%). Briefly, 100 μL of medium was placed into a 96 well plate and 100 μL of Griess reactive was added. After […] incubation at RT in the dark, the OD was measured at 550 nm.
The ability of each test compound to decrease the production of nitrite is presented as a percent decrease in OD with respect to the absorbance of the control condition i.e. 0.1% DMSO.

microglial cells [2] = assay: TNF-α quantification by ELISA in supernatant of microglial cells; assay type: cell-based; settings: test compound at 1 μM; medium collected 48 h after treatment; control 0.1% DMSO
Experimental: as §1
To quantify the presence of TNF-α in the supernatant of microglial cells, the medium was collected 48 h after treatment as described above. The ELISA 96 well plate was incubated overnight with the capture antibody (0.8 μg/ml, R&D). 10 μl of each sample was diluted with 90 μL of incubation buffer (PBS-BSA 1%, pH 7.2-7.4) and the plate was incubated for 2 h at RT. The plate was washed 3 times and incubated for 2 h with the detection antibody (150 ng/mL, R&D). […] After […] incubation at RT, the reaction was stopped with an equal volume of a 10% solution of sulfuric acid and the OD was measured at 450 nm.
The ability of each test compound to decrease the production of TNF-α is presented as a percent decrease in OD with respect to the absorbance of the control condition i.e. 0.1% DMSO.

[3] = test system: NSCs derived neurospheres; assay: Differentiation of NSCs to neurons: real-time PCR of Hes5 and Mash1 in neurospheres (Notch signaling); assay type: cell-based, mouse; settings: 1 μM, vs 0.1% DMSO vehicle, β-actin internal control
Experimental: The NSCs derived neurospheres culture was established from embryonic mouse cortices. Neurospheres were maintained in Neurobasal-A medium supplemented with B27 w/o retinoic acid, 2 mM Glutamine, 20 ng/ml EGF and antibiotics. The neurospheres were dissociated using a non enzymatic dissociation medium (Invitrogen) and the single cell suspension added to a flask with fresh medium. To differentiate the neurospheres into neurons, oligodendrocytes and astrocytes, 3 to 4 days old neurospheres were cultured in poly-ornithine treated 35 mm dishes. Cells were treated with test compounds (1 μM) or 0.1% DMSO vehicle as control in Neurobasal-A medium supplemented with B27 w/o retinoic acid, 2 mM Glutamine, antibiotics, 2 ng/ml EGF and 0.5% of heat inactivated FBS. RNA extraction was performed after 24 hours of incubation and gene expression was analyzed by real-time PCR.
The primer pairs for mouse Mash1, Hes5 and beta-actin were designed with the beacon designer software (premierbiosoft).
Notch signaling controls a wide variety of cell fate decisions, including the differentiation of NSCs during neurogenesis [Artavanis-Tsakonas, S. et al., Science, 1999, 284, 770]. […] Notch activation induces the expression of the downstream effectors Hes1 and Hes5, which down-regulate gene transcription of b-HLH transcription factors such as Mash1. Therefore, we tested whether compounds of general Formula (I) and (II) could modulate Notch signalling in NSCs. […] Inhibition of the Hes5 gene expression in the treated cultures was further correlated with an increase of Mash1 transcripts, a b-HLH factor involved in neuronal specification and differentiation [Ito, H. et al., J Neurosci Res. 2003, 71, 648].
FIG. 2: Compound A and B induces NSCs differentiation into neurons. Real-time PCR gene expression analysis in neurospheres. RNA extraction was performed after […] of incubation with compound A and B (1 μM) or with 0.1% DMSO vehicle as control.

[4] = test system: SH-SY5Y neuroblastoma cell line; assay: Differentiation of human neuroblastoma cell line SH-SY5Y into neurons: real-time PCR of Hash1 and Notch1; assay type: cell-based; settings: 1 μM, 24 hours; vs 0.1% DMSO vehicle; β-actin internal control
Experimental: SH-SY5Y cells were cultured in 6 well plates at a density of 500000 cells per well and was maintained in DMEM with 10% FBS. After 24 h, the cells were treated with test compounds (1 μM) or 0.1% DMSO vehicle as control. RNA extraction was performed after 24 hours of incubation and gene expression was analyzed by real-time PCR.
The specific primer pairs directed against human Hash1, Notch1 and beta-actin are from the online database qprimerdepot (http://primerdepot.nci.nih.gov/).
The human homolog of Mash1, Hash1, is expressed in neuroblastoma cell lines. […] 2001, 36,132]. Therefore, we tested whether compounds of general Formula (I) and (II) could induce the differentiation of SH-SY5Y neuroblastoma cell line by modulating the gene expression of Hash1 and Notch1.
FIG. 3: Compound A and B induces neuroblastoma differentiation into a neuronal phenotype. Real-time PCR gene expression analysis in SH-SY5Y neuroblastoma cell line. RNA extraction was performed after 24 hours of incubation with compound A and B (1 μM) or with 0.1% DMSO vehicle as control.

microglial cell line = assay: Real-time PCR gene expression analysis in microglial cell line with or without LPS activation; assay type: cell-based; settings: 1 μM, 3 hours incubation, with or without LPS 0.01 μg/ml; normalized to β-actin
Experimental: To evaluate mRNA expression levels, total RNA was extracted using invisorb
RNA extraction kit (Invitek). The concentration was determined by reading the OD at 260 nm. Retro-transcription was performed using Im-Prom-II™ Reverse Transcription System (Promega) with 1 μg of total RNA.
The reaction mixture contained 12.5 μl 2× SYBR Green mastermix (Biorad), 1 μl cDNA, 1 μl of each primer (12.5 μM) and 9.5 μl of H2O. The real-time PCR amplification was controlled by the MyIQ5 system (Biorad). After activation of the enzyme at 94° C. for […], the amplification was done by cycling 40 times between a denaturation step at 94° C. and the annealing step at 54.5° C. Gene expression was analyzed using the provided software and normalized to beta-actin expression.
FIG. 1: Compound B inhibits microglial activation in vitro. Real-time PCR gene expression analysis in microglial cell line. RNA extraction was performed after 3 hours of incubation with compound B (1 μM), with or without LPS activation (0.01 μg/ml).

Row | SMILES | activity at 1 µM (microglial cells [1]) | further results
1 | COc1cc(-c2oc3cc(O)c(CCCCCCCCCCCCO)c(O)c3c(=O)c2O)ccc1O | 99.6 ± 1.5% | 
2 | COc1cc(-c2oc3ccc(CCCCCCCCCCCCCCO)cc3c(=O)c2O)ccc1O [drawing 41] |  | % of TNF-α/control (microglial cells [2]): 75.4 ± 17.2%
3 | COc1ccc(-c2oc3ccc(CCCCCCCCCCCCCO)cc3c(=O)c2O)cc1OC | 89 ± 7.6% | 
4 | COc1cc(-c2oc3ccc(CCCCCCCCCCCCCO)cc3c(=O)c2OC)ccc1O | 95.3 ± 4.8% | 
5 | COc1c(CCCCCCCCCCCCCO)c(O)cc2oc(-c3ccc(O)c(O)c3)c(O)c(=O)c12 | 91.5 ± 2.6% | 
6 | COc1c(CCCCCCCCCCCCO)c(O)cc2oc(-c3ccc(O)c(O)c3)c(O)c(=O)c12 | 112 ± 1.7% | 
7 | COc1cc(-c2oc3cc(O)c4cc(CCCCCCCCCCCCO)oc4c3c(=O)c2O)ccc1O | 112 ± 8% | 
8 | COc1cc(-c2oc3cc(O)c(CCCCCCCCCCCCCO)cc3c(=O)c2O)ccc1O | 98.2 ± 1% | 
9 | O=c1c(O)c(-c2ccc(O)c(O)c2)oc2ccc(CCCCCCCCCCCCO)cc12 | 84.5 ± 5.9% | 
10 | COc1cc(-c2oc3ccc(CCCCCCCCCCCCO)cc3c(=O)c2O)ccc1O [Compound A, 3-hydroxy-2-(4-hydroxy-3-methoxyphenyl)-6-(12-hydroxydodecyl)-4H-chromen-4-one] |  | Hes5 gene expression [3]: decrease; Mash1 transcripts [3]: increase; also recorded: significantly increased; Hash1 transcripts [4]: inhibit; also recorded: significantly decreased; Notch1 transcripts [4]: inhibit; also recorded: significantly decreased
11 | COc1ccc(-c2oc3ccc(CCCCCCCCCCCCO)cc3c(=O)c2O)cc1OC | 87.7 ± 7.7% | 
12 | COc1cc(-c2oc3cc(O)c(CCCCCCCCCCCCO)cc3c(=O)c2O)ccc1O | 90.3 ± 3.9% | 
13 | COc1cc(-c2oc3ccc(CCCCCCCCCCCCCO)cc3c(=O)c2O)ccc1O [Compound B, 3-hydroxy-2-(4-hydroxy-3-methoxyphenyl)-6-(13-hydroxytridecyl)-4H-chromen-4-one] |  | Expression of transcripts (iNOS, TNF-α gene expression) in treated microglial cells (microglial cell line): significantly decreased; Hes5 gene expression [3]: decrease; Mash1 transcripts [3]: increase; also recorded: significantly increased; Hash1 transcripts [4]: inhibit; also recorded: significantly decreased; Notch1 transcripts [4]: inhibit; also recorded: significantly decreased
14 | COc1cc(-c2oc3ccc(CCCCCCCCCCCO)cc3c(=O)c2O)ccc1O [drawing 16] | 72 ± 3% | 
15 | COc1ccc(-c2oc3ccc(CCCCCCCCCCCCCO)cc3c(=O)c2O)cc1O | 103 ± 4% | 
16 | O=c1c(O)c(-c2ccc(O)c(O)c2)oc2cc(O)c3cc(CCCCCCCCCCCCO)oc3c12 | 112 ± 9.2% | 
17 | COc1cc(-c2oc3cc(O)c(CCCCCCCCCCCCO)c(OC)c3c(=O)c2O)ccc1O | 97.6 ± 6.9% | 
18 | COc1cc(-c2oc3ccc(CCCCCCCCCCCCCO)cc3c(=O)c2O)ccc1O [drawing 40] |  | % of TNF-α/control (microglial cells [2]): 77.2 ± 9.4%
19 | COc1cc(-c2oc3cc(O)c(CCCCCCCCCCCCCO)c(OC)c3c(=O)c2O)ccc1O | 96.6 ± 4.2% | 
20 | COc1cc(-c2oc3cc(O)c(CCCCCCCCCCCCCO)c(O)c3c(=O)c2O)ccc1O | 109 ± 10.5% | 
21 | COc1cc(-c2oc3ccc(CCCCCCCCCCCO)cc3c(=O)c2O)ccc1O [drawing 38] |  | % of TNF-α/control (microglial cells [2]): 69.2 ± 3.9%
22 | COc1cc(-c2oc3ccc(CCCCCCCCCCCCO)cc3c(=O)c2O)ccc1O [drawing 17] | 61.1 ± 3.1% | 
23 | COc1cc(-c2oc3ccc(CCCCCCCCCCCCCO)cc3c(=O)c2O)ccc1O [drawing 18, 3-hydroxy-2-(4-hydroxy-3-methoxyphenyl)-6-(13-hydroxytridecyl)-4H-chromen-4-one] | 59.8 ± 2.1% | 
24 | CCCCCCCCCCCCCc1ccc2oc(-c3ccc(O)c(OC)c3)c(O)c(=O)c2c1 [drawing 35] | 85 ± 0.9% | 
25 | COc1cc(-c2oc3ccc(CCCCCCCCCCCCCCO)cc3c(=O)c2O)ccc1O [drawing 19] | 77.5 ± 3.9% | 
26 | COc1cc(-c2cc(=O)c3cc(CCCCCCCCCCCCCO)ccc3o2)ccc1O | 102 ± 3.8% | 
27 | O=c1c(O)c(-c2ccc(O)c(O)c2)oc2cc(O)c(CCCCCCCCCCCCCO)c(O)c12 | 82.4 ± 6.3% | 
28 | CCCCCCCCCCCCCc1ccc2oc(-c3ccc(O)c(OC)c3)c(O)c(=O)c2c1 [drawing 42] |  | % of TNF-α/control (microglial cells [2]): 91.2 ± 7.9%
29 | O=c1c(O)c(-c2ccc(O)c(O)c2)oc2ccc(CCCCCCCCCCCCCO)cc12 | 86.3 ± 4.2% | 
30 | O=c1c(O)c(-c2ccc(O)c(O)c2)oc2cc(O)c(CCCCCCCCCCCCO)c(O)c12 | 81.6 ± 4% | 

Source: patent US20110144194A1, “CHROMENONE DERIVATIVES USEFUL FOR THE TREATMENT OF NEURODEGENERATIVE DISEASES” (priority 2008, published 2011)
